Source: patent US9387225B2, “Gold-platinum based bi-metallic nanocrystal suspensions, electrochemical manufacturing processes therefor and uses for the same” (GR INTELLECTUAL RESERVE, LLC, a Nevada LLC, priority 2011, dated 2016)
Like-named read-outs stand apart in the source and are kept apart here.

Experiments:
HCT116 tumors [1] = test: Xenograft cancer study in mice, HCT116, oral administration (Example 20d); type: in vivo, mouse
Description: (§1) Female Balb/C, immunologically deficient recipient mice (6-8 weeks old) had tumors implanted therein. The Balb/C donor mice were used to grow HCT116 tumors, which tumors were excised therefrom and subsequently sectioned into small fragments about 2 mm^3 in size. The Balb/C recipient mice were given brief general anesthesia and then one HCT116 2 mm^3 tumor fragment from the donor mice was implanted into each of the left and right flank of the recipient mice using a trocar needle. Once the tumors in the recipient mice had reached a measurable size of about 4×4 mm, as measured by calipers placed against each mouse skin, the recipient mice were randomly placed into treatment groups, 8 per group and the oral treatment was started. 8 mice were in the positive control group (“Cisplatin”) and 8 mice were in the negative control group and received only water (“Control”). Treatment was given exclusively via the drinking bottle shared between the mice in each Treatment group. Cisplatin was given by intraperitoneal injection on day 0. Tumor size was assessed five times per week using a pair of calipers and mouse weight was also obtained by a scale, such measuring occurring until the mouse died (or was removed from the study) or the study was terminated as scheduled.
• Species: Mice • Strain: Balb/C immunodeficient mice • Source: Harlan • Gender and number: Female, 36 • Age: About 6-8 weeks old at the start of the study. • Identification: Each mouse was given a unique identity number. • Animal husbandry: On receipt, all animals were examined for external signs of ill-health and all unhealthy animals were excluded from further evaluation. Animals were housed in groups of three under specific pathogen free (spf) conditions, in a thermostatically monitored room (22±4° C.) in an animal unit. Animals were equilibrated under standard animal house conditions for at least 72 hours prior to use. The health status of the animals was monitored throughout this period and the suitability of each animal for experimental use was assessed prior to study start. • Housing Animals were housed in groups of 3 per cage in a controlled room, to ensure correct temperature, humidity and 12 hour light/dark cycle for the duration of the study. • Diet: Irradiated pellet diet and water was available ad libitum throughout the holding, acclimatisation and post-dose periods. Compound and Reagents • HCT 116 cell line (ATCC CCL-247). • Phosphate buffered saline (“PBS”). • Test compounds: Au—Pt bi-metallic nanocrystal suspensions. • Positive control compound: cisplatin. • Negative control compound: drinking water. Treatment Groups and Dosages • Negative Control Group 1: Days 0-21, given normal drinking water. • Positive Control Group 2: Days 0-21, given normal drinking water; and given a one-time cisplatin dose of 8 mg/kg by intraperitoneal injection (“IP”) on day 0. • Treatment Group 3-5: Days 0-21, given test compounds as their drinking water. Protocol A: Preparation and Growth of Donor Tumors
(§2) a.) Preparation of Tumor Cells • 1. Cells were grown in complete medium and all contaminants were excluded. • 2. When the cells were approximately 70-80% confluent, then approximately 3-4 hours before harvesting, the old cell growth medium was replaced with fresh cell growth medium to remove any dead and/or detached cells. • 3. […] The cells were then placed on a glass slide in the traditional manner and were counted using a hemocytometer. • 5. […]

HCT116 tumors [2] = type: in vivo
Description: as §1
• Species: Mice • Strain: Balb/C immunodeficient mice • Source: Harlan • Gender and number: Female, 36 • Age: About 6-8 weeks old at the start of the study. • Identification: Each mouse was given a unique identity number. • Animal husbandry: On receipt, all animals were examined for external signs of ill-health and all unhealthy animals were excluded from further evaluation. Animals were housed in groups of three under specific pathogen free (spf) conditions, in a thermostatically monitored room (22±4° C.) in an animal unit. Animals were equilibrated under standard animal house conditions for at least 72 hours prior to use. The health status of the animals was monitored throughout this period and the suitability of each animal for experimental use was assessed prior to study start. • Housing Animals were housed in groups of 3 per cage in a controlled room, to ensure correct temperature, humidity and 12 hour light/dark cycle for the duration of the study. • Diet: Irradiated pellet diet and water was available ad libitum throughout the holding, acclimatisation and post-dose periods. Compound and Reagents • HCT 116 cell line (ATCC CCL-247). • Phosphate buffered saline (“PBS”). • Test compounds: gold nanocrystal suspension NE-28-10X (NE-28 produced equivalent to • NE10214 in Example 1) Concentrated 10×. • Positive control compound: cisplatin. • Negative control compound: drinking water. Treatment Groups and Dosages • Negative Control Group 1: Days 0-21, given normal drinking water. • Positive Control Group 2: Days 0-21, given normal drinking water; and given a one-time cisplatin dose of 8 mg/kg by intraperitoneal injection (“IP”) on day 0. • Treatment Group 3: Days 0-21, given test compounds as their drinking water. Protocol A: Preparation and Growth of Donor Tumors
as §2

H460 tumors = test: Xenograft cancer study in mice, H460, oral administration (Example 20e); type: in vivo, mouse
Description: Female Balb/C, immunologically deficient recipient mice (6-8 weeks old) had tumors implanted therein. The Balb/C donor mice were used to grow H460 tumors, which tumors were excised therefrom and subsequently sectioned into small fragments about 2 mm^3 in size. The Balb/C recipient mice were given brief general anesthesia and then one H4602 mm^3 tumor fragment from the donor mice was implanted into each of the left and right flank of the recipient mice using a trocar needle. Once the tumors in the recipient mice had reached a measurable size of about 4×4 mm, as measured by calipers placed against each mouse skin, the recipient mice were randomly placed into treatment groups, 8 per group and the oral treatment was started. 8 mice were in the positive control group (“Cisplatin”) and 8 mice were in the negative control group and received only water (“Control”). Treatment was given exclusively via the drinking bottle shared between the mice in each Treatment group. Cisplatin was given by intraperitoneal injection on day 0. Tumor size was assessed five times per week using a pair of calipers and mouse weight was also obtained by a scale, such measuring occurring until the mouse died (or was removed from the study) or the study was terminated as scheduled.
• Species: Mice • Strain: Balb/C immunodeficient mice • Source: Harlan • Gender and number: Female, 36 • Age: About 6-8 weeks old at the start of the study. • Identification: Each mouse was given a unique identity number. • Animal husbandry: On receipt, all animals were examined for external signs of ill-health and all unhealthy animals were excluded from further evaluation. Animals were housed in groups of three under specific pathogen free (spf) conditions, in a thermostatically monitored room (22±4° C.) in an animal unit. Animals were equilibrated under standard animal house conditions for at least 72 hours prior to use. The health status of the animals was monitored throughout this period and the suitability of each animal for experimental use was assessed prior to study start. • Housing Animals were housed in groups of 3 per cage in a controlled room, to ensure correct temperature, humidity and 12 hour light/dark cycle for the duration of the study. • Diet: Irradiated pellet diet and water was available ad libitum throughout the holding, acclimatisation and post-dose periods. Compound and Reagents • H460cell line (ATCC HTB-177). • Phosphate buffered saline (“PBS”). • Test compounds: Au—Pt bi-metallic nanocrystal suspensions. • Positive control compound: cisplatin. • Negative control compound: drinking water. Treatment Groups and Dosages • Negative Control Group 1: Days 0-21, given normal drinking water. • Positive Control Group 2: Days 0-21, given normal drinking water; and given a one-time cisplatin dose of 8 mg/kg by intraperitoneal injection (“IP”) on day 0. • Treatment Group 3-5: Days 0-21, given test compounds as their drinking water. Protocol A: Preparation and Growth of Donor Tumors
as §2

[3] = HCT116 xenograft, oral, versus Group 1 (Control)
[4] = tumor doubling time, HCT116 xenograft, oral
[5] = tumor doubling time, H460 xenograft, oral

## N.N.[Cl][Pt][Cl] [cisplatin]
HCT116 tumors [1]; [3]
  Growth Delay: 1.7 days
HCT116 tumors [1]; mouse, in vivo, po
  Maximum % Weight Loss: 5%
  Maximum % Weight Loss, day (d) of maximum: 7 days
HCT116 tumors [1]; [4]
  Mean Time to RTV2: 5.2 days
  Median Time to RTV2: 5.2 days
HCT116 tumors [2]; [3]
  Growth Delay: 0.9 days
HCT116 tumors [2]; mouse, in vivo, po
  Maximum % Weight Loss: 5%
  Maximum % Weight Loss, day (d) of maximum: 2 days
HCT116 tumors [2]; [4]
  Mean Time to RTV2: 3.9 days
  Median Time to RTV2: 3.5 days
H460 tumors; H460 xenograft, oral, versus Group 1 (Control)
  Growth Delay: 2.5 days
H460 tumors; mouse, in vivo, po
  Maximum % Weight Loss: 6%
  Maximum % Weight Loss, day (d) of maximum: 3 days
H460 tumors; [5]
  Mean Time to RTV2: 5.0 days
  Median Time to RTV2: 5.0 days
